Assay results reported in US20010049097A1 (priority 1999, published 2001).

Key:
[1] = target: T1, mutant T7 Y639F polymerase (Escherichia phage T7, UniProt P00573, Y639F); type: biochemical, T7 bacteriophage; conditions: for effect on nucleotide incorporation: reactions containing 4 rNTPs and no non-canonical nucleotides; for concentration found to increase rate of Y639RNAP-catalyzed transcript extension: more than one rNTP replaced by a non-canonical nucleoside triphosphate; for concentration in excess of which generally inhibitory of activity: reaction with 4 rNTPs and plasmid templates
T1 construct: made in house; host or cells: E. coli BL21 (protease-deficient strain), plasmid pDPT7
Procedure: In general, transcription reaction mixtures comprised about 40 mM Tris-HCl or 40 mM Tris-Acetate pH 8.0, 5 mM DTT, 5-15 mM MgCl2, 0.1 mCi/ml of alpha-^32P GTP, and various combinations of rNTPs and dNTPs at initial concentrations of 0.5 mM and 1.0 mM, respectively. The reaction mixtures included supercoiled or PvuI-linearized pT75 DNA (10^−8 M) as the template and mutant T7 Y639F polymerase (10^−7 M). Reactions were typically conducted in 50 microliter reaction volumes and incubated at 37° C. Aliquots were removed after 5, 10, and 20 minutes of incubation and the reactions were quenched by adding a solution containing 95% formamide, 20 mM EDTA, 0.01% xylene cyanol. The reaction products were resolved by electrophoresis on denaturing gels containing 6% acrylamide, 0.6% bis-acrylamide, 6 M urea, 1×TBE. The gel was analyzed using a Molecular Dynamics Phosphorimager to determine the rates of incorporation of radioactive GTP into specific transcripts.
To evaluate the effect of A-form stabilizing compounds on polyamines on transcript extension by a mutant T7 RNAP, the activity of the RNAP was evaluated using standard transcription conditions (15 mM MgCl2, 40 mM Tris-HCl pH 8.0, 1 mM EDTA, and 5 mM DTT), or standard transcription reaction conditions plus varying concentrations of ethanol, methanol, trifuoro acteic acid, cobalt hexamine, spermine, or spermidine.
In addition to evaluating A-form stabilizing compounds, we examined the effects of varying the concentration of Mg^2+ and Mn^2+, substituting acetate for chloride as the main reaction counteranion, adding 0.1% tween-20, and adding pyrophosphatase.
With reference to FIG. 1A, reactions in lanes labeled ‘M’ were carried out with wild type polymerase, 4 rNTPs, and either Pvu I- or Hind III-restricted pT75 to generate RNA markers ˜579 or ˜59 bases in length, respectively. Values below each gel lane give the relative rates of synthesis of runoff or long (>˜600 base) transcripts on linearized or supercoiled templates, respectively, normalized to a value of 100 for the 4 rNTP reactions. FIG. 1A compares the relative activities of Y639F in typical polymerase reaction conditions (15 mM MgCl2, 40 mM Tris-HCl pH 8.0, 1 mM EDTA, and 5 mM DTT) and in a modified reaction mixture (40 mM Tris-acetate pH 8.0, 5 mM DTT, 1 mM EDTA, 10 mM Mg-acetate, 0.5 mM MnCl2, 8 mM spermidine, and 1 U/μl pyrophosphatase) in reactions having various combinations of rNTPs and dNTPs with supercoiled or linearized templates.
With reference to FIG. 1B, transcripts were synthesized using Hind III-cut pT75 as the template with 2′-NH2- or 2′-F NTPs as indicated replacing the corresponding rNTPs in the reaction. Reactions were conducted with 8 mM or 0 mM spermidine, as indicated. FIG. 1B compares the activity of Y639F in the presence or absence of spermidine, in reactions with 4 rNTPs or different combinations of rNTPs and 2′-F- or 2′-NH2-NTPs.

Y639F T7RNAP = Y639F T7RNAP (Escherichia phage T7, UniProt P00573, Y639F); conditions: 42 bp template
Chain of Y639F T7RNAP (P00573 whole entry Y639F): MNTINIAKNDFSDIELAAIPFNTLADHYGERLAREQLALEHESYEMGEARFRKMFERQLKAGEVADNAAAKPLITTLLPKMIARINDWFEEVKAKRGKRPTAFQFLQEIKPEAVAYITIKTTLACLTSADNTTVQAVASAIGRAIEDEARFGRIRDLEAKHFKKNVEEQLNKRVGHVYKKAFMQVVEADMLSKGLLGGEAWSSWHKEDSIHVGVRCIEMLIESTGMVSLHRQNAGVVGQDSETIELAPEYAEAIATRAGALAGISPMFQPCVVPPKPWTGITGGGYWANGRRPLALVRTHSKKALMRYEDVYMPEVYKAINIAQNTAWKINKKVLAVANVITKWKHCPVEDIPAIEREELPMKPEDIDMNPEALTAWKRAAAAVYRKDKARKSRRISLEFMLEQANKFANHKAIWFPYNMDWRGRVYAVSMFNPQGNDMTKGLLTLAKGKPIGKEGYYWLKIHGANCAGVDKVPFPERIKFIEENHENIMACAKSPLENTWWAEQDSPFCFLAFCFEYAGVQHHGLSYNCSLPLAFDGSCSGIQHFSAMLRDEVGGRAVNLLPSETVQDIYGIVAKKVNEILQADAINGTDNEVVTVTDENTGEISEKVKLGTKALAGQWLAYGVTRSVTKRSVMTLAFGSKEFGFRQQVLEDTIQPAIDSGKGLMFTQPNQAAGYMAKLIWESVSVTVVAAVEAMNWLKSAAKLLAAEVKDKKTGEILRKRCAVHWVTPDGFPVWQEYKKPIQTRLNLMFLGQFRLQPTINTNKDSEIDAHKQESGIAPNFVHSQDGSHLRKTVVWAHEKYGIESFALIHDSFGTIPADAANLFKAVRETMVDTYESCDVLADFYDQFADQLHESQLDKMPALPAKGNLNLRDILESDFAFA
Procedure: A 42 base-pair synthetic template carrying a consensus T7 promoter was tested for its effect on Y639F T7RNAP activity by measuring the synthesis of 25 base runoff transcripts in reaction mixtures containing 10 mM MgCl2, 40 mM Tris pH 8.0, 1 mM EDTA, 5 mM DTT, 0.5 mM MnCl2 and either 3 dNTP+rGTP or 4 rNTP reactions (FIG. 2A). […] The polymerase and T7 promoter were included at concentrations of about 10^−7 M. Reaction products were subjected to electrophoresis on denaturing gels containing 20% acrylamide, 2% bis-acrylamide, 6 M urea, 1×TBE.

T1 sequence (P00573 whole entry Y639F): as above

CO[C@@H]1[C@H](O)[C@@H](COP(=O)(O)OP(=O)(O)OP(=O)(O)O)O[C@H]1n1cnc2c(=O)[nH]c(N)nc21 [2′-O-Me-GTP]
synthesis of 59 base runoff transcripts, lower than in reactions with 4 rNTPs ([1]; Hind-III linearized pT75, modified buffer, single rNTP replaced): eliminated synthesis of runoff transcripts altogether

N.N.N.N.N.N.[Cl-].[Cl-].[Cl-].[Co+3] [cobalt, cobalt hexamine]
effect on nucleotide incorporation [1]: inhibited

CCO [ethanol]
effect on nucleotide incorporation [1]: inhibited

CO [methanol]
effect on nucleotide incorporation [1]: inhibited

NCCCCNCCCN [spermidine]
concentration found to increase rate of Y639RNAP-catalyzed transcript extension [1]: at least 8 mM
concentration in excess of which generally inhibitory of activity [1]: > 10 mM
effect on nucleotide incorporation [1]: minimal effects at low concentrations and were inhibitory at high concentrations

NCCCNCCCCNCCCN [spermine]
runoff synthesis relative to 8 mM spermidine (Y639F T7RNAP; 1.6 mM spermine, 3 dNTPs): 2 fold
concentrations shown to be stimulatory (Y639F T7RNAP; reactions with 3 dNTPs): up to 13 mM
concentration found to increase rate of Y639RNAP-catalyzed transcript extension [1]: at least 1.5 mM
concentration inhibiting transcription ([1]; plasmid pT75 template, all combinations of rNTPs and dNTPs): ≥ 4 mM
concentration in excess of which generally inhibitory of activity [1]: > 1 mM
effect on nucleotide incorporation [1]: minimal effects at low concentrations and were inhibitory at high concentrations
concentration optimum for stimulation of activity ([1]; reactions with non-canonical substrates (3 replaced), plasmid templates): 1 to 2 mM

O=C(O)C(F)(F)F [trifluoroacetic acid]
effect on nucleotide incorporation [1]: inhibited
